In general, IC50 refers to the concentration that inhibits the measured activity by half. A low value points to greater potency. In general, inhibition refers to the change of the read-out against control, counted positive when it falls. A higher inhibition goes with a response far below the control.

For the first experiment, the system named is MIA-PACA2 pancreatic cancer cell lines. Put plainly: Cell proliferation assay (CellTiter 96 AQueous One). The experiment is classed as cell-based. Conditions: Homo sapiens, MIA PaCa-2; MIA-PACA2, same assay as the % inhibition (standard conditions). On the procedure:
Cell lines: Tumor-derived pancreatic cancer cell lines MIA-PACA2 were purchased from ATCC and grown in complete DMEM-High Glucose medium supplemented with penicillin (100 U/mL), streptomycin (100 μg/mL), and 10% heat-inactivated FBS at 37° C. in a humidified incubator with 5% CO2.
Method: Cells are plated at 1000 cells/well density in 96-wells plate, starved ON, and the next day tested small molecules are added to the cells in the final concentration of 30 μM with 0.3% DMSO 3 hours prior to 10% FBS addition. After serum addition cells are incubated for 6 days at 37° C. in a humidified incubator with 5% CO2. For IC50 value determination, serial dilutions of compounds were added to cells under the same conditions.
Assay: At the end of the incubation period, cell cultures are tested using the CellTiter 96® AQueous One Solution Cell Proliferation Assay kit (Promega Corporation, Madison, Wis.) according to the manufacturer specifications. Briefly, assay is performed by adding 20 μl of the CellTiter 96 Aqueous One Solution Reagent directly to culture wells, followed by for 1-4 hours incubation at 37° C. in a humidified incubator with 5% CO2. At the end of incubation time, absorbance at 492 nm is recorded with the 96-well plate reader Eppendorf AF2200, and degree of small molecule-dependent proliferation inhibition is calculated from raw data assuming No Serum cells value as 100%.
`Oc1nc(-c2ccccn2)nc2c(-c3cccc4c3OCO4)csc12` [drawing 1725] yielded an IC50 of 100 to 500 nM.

On to `CC1CN(c2ccccc2)CCN1C(=O)c1csc2c(O)nc(-c3ccccn3)nc12` (stereo not shown) [drawing 1654], for which the IC50 is 501 to 1000 nM.

Staying with this experiment, now noted: Homo sapiens, MIA PaCa-2; at 30 μM, MIA-PACA2.
With `COc1cnc(-c2ccccn2)nc1O` [drawing 1791], the inhibition at 30 µM fell in the range of 76 to 100%.

`CC1(O)CCN(C(=O)c2csc3c(O)nc(-c4ccccn4)nc23)CC1` [drawing 1572]: the inhibition at 30 µM fell in the range of 76 to 100%.

For `CC(Nc1nc(-c2ccccn2)nc2scc(-c3ccccc3)c12)c1nncn1C` (stereo not shown) [drawing 1601], the inhibition at 30 µM fell in the range of 76 to 100%.

Consider `CS(=O)(=O)N1CCCc2cc(C(=O)N3CCCc4c(O)nc(-c5ccccn5)nc43)ccc21` [drawing 1547], for which the inhibition at 30 µM was 76 to 100%.

`Oc1nc(-c2ccccn2)nc2c1ncn2-c1ccccn1` [drawing 1584] showed an inhibition at 30 µM of 76 to 100%.

For the compound `O=C(c1csc2c(O)nc(-c3ccccn3)nc12)N1CCN(Cc2cccc(O)c2)CC1` [drawing 1634], the inhibition at 30 µM lay within 76 to 100%.

`O=C(NCCc1cccnc1)c1cc2nc(-c3ccccn3)nc(O)c2s1` [drawing 1719] returned an inhibition at 30 µM of 76 to 100%.

In turn, `Nc1nc(-c2ccccn2)nc2c(Br)csc12` [drawing 1768] displayed an inhibition at 30 µM of 25 to 50%.

The compound `O=C(c1csc2c(O)nc(-c3ccccn3)nc12)N1CCC(c2ccncc2)C1` (stereo not shown) [drawing 1715] gave an inhibition at 30 µM of 76 to 100%.

`CC(Oc1cccc(C#N)c1)C(=O)Nc1nnc(-c2ccccn2)[nH]1` (stereo not shown) [drawing 1424] gave an inhibition at 30 µM of 76 to 100%.

As to `CC1CCN(C(=O)c2csc3c(O)nc(-c4ccccn4)nc23)CC1` [drawing 1563], the inhibition at 30 µM was 76 to 100%.

As to `O=C(c1csc2c(O)nc(-c3ccccn3)nc12)N1CCC(c2cccc(O)c2)C1` (stereo not shown) [drawing 1716], the inhibition at 30 µM lay in the range of 76 to 100%.

`N#Cc1ccc(COCC(=O)Nc2nc(-c3ccccn3)nc3sccc23)cc1` [drawing 1692] had an inhibition at 30 µM of 76 to 100%.

`Cc1nc(-c2ccccn2)nc(O)c1CCC(=O)Nc1cccc(OCC(=O)N2CCCC2)c1` [drawing 1507] registered an inhibition at 30 µM of 1 to 25%.

In turn, `CCN(CC)C(=O)c1sc2[nH]c(-c3ccccn3)nc(=O)c2c1C` [drawing 1496] had an inhibition at 30 µM of 76 to 100%.

For `Cc1nc(-c2ccccn2)nc(O)c1CCC(=O)Nc1ccc(C(C)C)cc1` [drawing 1505], the inhibition at 30 µM lay in the range of 76 to 100%.

In turn, `Oc1nc(-c2ccccn2)nc2c(-c3ccc4c(c3)OCO4)csc12` [drawing 1755] registered an inhibition at 30 µM of 76 to 100%.

For the compound `O=C(NCCc1ccc(O)c(O)c1)c1csc2nc(-c3ccccn3)nc(N3CCOCC3)c12` [drawing 1678], the inhibition at 30 µM was in the range of 76 to 100%.

In turn, `O=C(c1csc2c(O)nc(-c3ccccn3)nc12)N1CCc2ccccc2CC1` [drawing 1579] registered an inhibition at 30 µM of 76 to 100%.

`O=C(c1csc2c(O)nc(-c3ccccn3)nc12)N1CCOC(CN2CCOCC2)C1` (stereo not shown) [drawing 1698] displayed an inhibition at 30 µM of 51 to 75%.

On to `Oc1nc(-c2ccccn2)nc2c(-c3cncc(C(F)(F)F)c3)csc12` [drawing 1788], for which the inhibition at 30 µM was in the range of 76 to 100%.

Regarding `Oc1nc(-c2ccccn2)nc2sc3c(c12)CCCNC3` [drawing 1728], the inhibition at 30 µM lay within 25 to 50%.

In turn, `CCn1nc(C)cc1-c1csc2c(O)nc(-c3ccccn3)nc12` [drawing 1779] yielded an inhibition at 30 µM of 76 to 100%.

Compound `COc1ccc2c(ccn2CC(=O)Nc2nnc(-c3ccccn3)[nH]2)c1` [drawing 1399] displayed an inhibition at 30 µM of 76 to 100%.

In turn, `Nc1nc(-c2ccccn2)nc2c(-c3ccccc3Cl)csc12` [drawing 1711] came in with an inhibition at 30 µM of 76 to 100%.

Take `O=C(CN1CCN(c2nc(-c3ccccn3)nc3scc(-c4ccccc4)c23)CC1)N1CCCCC1` [drawing 1611]: the inhibition at 30 µM is 76 to 100%.

As to `CNC(=O)CN1CCN(c2nc(-c3ccccn3)nc3scc(-c4ccccc4)c23)CC1` [drawing 1607], the inhibition at 30 µM was 1 to 25%.

Compound `COCCNc1nc(-c2ccccn2)nc2scc(-c3ccccc3)c12` [drawing 1625] gave an inhibition at 30 µM of 76 to 100%.

Consider `Nc1nc(O)c2scc(C(=O)N3CCc4ccccc4CC3)c2n1` [drawing 1561], for which the inhibition at 30 µM was 1 to 25%.

In turn, `Cc1nc(-c2ccccn2)sc1C(=O)Nc1nnc(-c2ccccn2)[nH]1` [drawing 1444] displayed an inhibition at 30 µM of 76 to 100%.

For the compound `O=C(COCc1cccnc1)Nc1nc(-c2ccccn2)nc2sccc12` [drawing 1705], the inhibition at 30 µM lay in the range of 76 to 100%.

With `COc1cccc(C(=O)Nc2nc(-c3ccccn3)cs2)c1` [drawing 1487], the inhibition at 30 µM lay in the range of 76 to 100%.

Compound `O=C(COc1ccc2c(c1)CCC2)Nc1nnc(-c2ccccn2)[nH]1` [drawing 1438] returned an inhibition at 30 µM of 1 to 25%.

With `CC(C)(C(=O)Nc1nc(-c2ccccn2)nc2sccc12)c1ccc(C#N)cc1` [drawing 1646], the inhibition at 30 µM was 76 to 100%.

`Oc1nc(-c2ccccn2)nc2c(-c3cccc4c3OCO4)csc12` [drawing 1725] yielded an inhibition at 30 µM of 76 to 100%.

For the compound `O=C(COCc1ccncc1)Nc1nc(-c2ccccn2)nc2sccc12` [drawing 1704], the inhibition at 30 µM was in the range of 76 to 100%.

The compound `COc1cn(-c2ccccc2)nc1C(=O)Nc1nnc(-c2ccccn2)[nH]1` [drawing 1466] gave an inhibition at 30 µM of 51 to 75%.

For `CCN(CC)C(=O)CN1CCN(c2nc(-c3ccccn3)nc3scc(-c4ccccc4)c23)CC1` [drawing 1613], the inhibition at 30 µM is 76 to 100%.

The compound `O=c1nc(-c2ccccn2)[nH]c2scc(-c3cccs3)c12` [drawing 1490] gave an inhibition at 30 µM of 76 to 100%.

Compound `O=C(Nc1nc(-c2ccccn2)cs1)C1COc2ccccc2O1` (stereo not shown) [drawing 1473] yielded an inhibition at 30 µM of 76 to 100%.

On to `O=C(CN1CCN(c2nc(-c3ccccn3)nc3scc(-c4ccccc4)c23)CC1)NC1CC1` [drawing 1621], for which the inhibition at 30 µM fell in the range of 76 to 100%.

The compound `COC(=O)c1ccc(C(=O)NCC2(c3ccccc3OC)CCCC2)nc1` [drawing 1528] registered an inhibition at 30 µM of 76 to 100%.

The compound `O=C(c1csc2c(O)nc(-c3ccccn3)nc12)N1CCOC(Cc2ccccc2)C1` (stereo not shown) [drawing 1664] gave an inhibition at 30 µM of 76 to 100%.

In turn, `CC(C1CC1)N(CC(F)(F)F)C(=O)Cc1ccc(-c2ccccc2)cc1` (stereo not shown) [drawing 1535] showed an inhibition at 30 µM of 76 to 100%.

`Oc1nc(-c2ccccn2)nc2c(-c3cc(F)cc(F)c3)csc12` [drawing 1776] came in with an inhibition at 30 µM of 76 to 100%.

The compound `O=C(c1csc2c(O)nc(-c3ccccn3)nc12)N1CCNC(c2ccccc2Cl)C1` (stereo not shown) [drawing 1699] displayed an inhibition at 30 µM of 76 to 100%.

In turn, `COc1cc(CCNC(=O)c2csc3nc(-c4ccccn4)nc(N4CCOCC4)c23)ccn1` [drawing 1641] displayed an inhibition at 30 µM of 51 to 75%.

In turn, `CC(Oc1ccc(C(=O)Nc2nnc(-c3ccccn3)[nH]2)cn1)c1ccccc1` (stereo not shown) [drawing 1425] showed an inhibition at 30 µM of 76 to 100%.

The compound `COCCCCNC(=O)c1csc2nc(-c3ccccn3)nc(N(CCOC)CCOC)c12` [drawing 1686] returned an inhibition at 30 µM of 76 to 100%.

In turn, `COC(=O)c1cc2nc(-c3ccccn3)nc(O)c2s1` [drawing 1783] showed an inhibition at 30 µM of 76 to 100%.

As for `N#Cc1ccc(N2CCN(C(=O)c3csc4c(O)nc(-c5ccccn5)nc34)CC2)cc1` [drawing 1650], the inhibition at 30 µM lay within 25 to 50%.

For `O=C(c1csc2c(O)nc(-c3ccccn3)nc12)N1CCNC(Cc2cccc(F)c2)C1` (stereo not shown) [drawing 1708], the inhibition at 30 µM was in the range of 25 to 50%.

`O=C(CNc1nc(-c2ccccn2)nc2scc(-c3ccccc3)c12)NC1CC1` [drawing 1612] returned an inhibition at 30 µM of 76 to 100%.

In turn, `O=C(Cc1cccs1)Nc1nnc(-c2ccccn2)[nH]1` [drawing 1409] showed an inhibition at 30 µM of 1 to 25%.

Consider `CC(C)CNC(=O)CN1CCN(c2nc(-c3ccccn3)nc3scc(-c4ccccc4)c23)CC1` [drawing 1614], for which the inhibition at 30 µM lay in the range of 76 to 100%.

Compound `COc1ccc(CCC(=O)Nc2nnc(-c3ccccn3)[nH]2)cc1F` [drawing 1385] returned an inhibition at 30 µM of 1 to 25%.

In turn, `CC1CN(c2ccccc2)CCN1C(=O)c1csc2c(O)nc(-c3ccccn3)nc12` (stereo not shown) [drawing 1654] returned an inhibition at 30 µM of 76 to 100%.

Take `O=C(NCCc1cncnc1)c1csc2nc(-c3ccccn3)nc(N3CCOCC3)c12` [drawing 1677]: the inhibition at 30 µM was in the range of 76 to 100%.

As to `CC(C)(C)c1nc(C(=O)Nc2nnc(-c3ccccn3)[nH]2)cs1` [drawing 1454], the inhibition at 30 µM was in the range of 76 to 100%.

`CCOc1cc(S(=O)(=O)N(Cc2ccccc2)Cc2ccccc2)c(OCC)cc1C` [drawing 1529] registered an inhibition at 30 µM of 76 to 100%.

Take `Cc1sc2c(O)nc(-c3ccccn3)nc2c1-c1ccccc1` [drawing 1781]: the inhibition at 30 µM was in the range of 76 to 100%.

Take `O=C(Cc1c[nH]c2ccccc12)Nc1nnc(-c2ccccn2)[nH]1` [drawing 1387]: the inhibition at 30 µM lay within 1 to 25%.

`Cc1c(C(=O)Nc2nnc(-c3ccccn3)[nH]2)oc2c1C(=O)CCC2` [drawing 1404] registered an inhibition at 30 µM of 76 to 100%.

`CN(CCc1cccc(C#N)c1)C(=O)c1csc2nc(-c3ccccn3)nc(N3CCOCC3)c12` [drawing 1681] registered an inhibition at 30 µM of 76 to 100%.

Turning to `Cc1cccc(CN(Cc2ccccn2)Cc2nccn2C)c1` [drawing 1519], the inhibition at 30 µM fell in the range of 76 to 100%.

`COc1ccccc1C1CN(C(=O)c2csc3c(O)nc(-c4ccccn4)nc23)CCN1` (stereo not shown) [drawing 1665] had an inhibition at 30 µM of 76 to 100%.

For `N#Cc1cccc(N2CCN(C(=O)c3csc4c(O)nc(-c5ccccn5)nc34)CC2)c1` [drawing 1649], the inhibition at 30 µM lay in the range of 76 to 100%.

For `N#CC1(c2ccc(C(=O)N3CCCC3CO)cc2)CC1` (stereo not shown) [drawing 1537], the inhibition at 30 µM fell in the range of 51 to 75%.

(Values after patent publication US10940139B2, “Compounds that interact with the Ras superfamily for the treatment of cancers, inflammatory diseases, rasopathies, and fibrotic disease” (Shy Therapeutics LLC, priority 2017, dated 2021).)
